Measured values reported in US10857234B2, “Carbonic anhydrase IX inhibitor conjugates and uses thereof” (Endocyte, Inc., priority 2016, dated 2020).

What was measured:
CA IX [1] = target: T1, CA IX (Homo sapiens, UniProt Q16790); experiment: CA IX competitive binding assay (pH 6.8 vs. 7.4 buffers + Zn2+); settings: HT29 cells, 2 nM 125I-EC2674, 2 hr, 37° C.
T1 construct: endogenous in cells; host or cells: HT29 cells under hypoxia (1.3% O2)
Method: HT29 cells were seeded into 24-well plates at 0.5×10^6 cells per well in McCoy's 5A medium containing 10% fetal bovine serum (FBS) and were allowed to attach for 48 h in an incubator with an atmosphere of 5% CO2/95% air and 37° C. The evening prior to the binding assay, cells were placed in a Hypoxylab workstation set at 10 mm Hg (1.3% O2), 5% CO2, and 37° C. (hypoxic conditions). A single concentration of ^125I-CAIX radioligand was used (2 nM). Serial dilutions of competitors (EC2674 and EC2711) were prepared in McCoy's 5A medium/10% FBS. Binding solutions (500 μL) containing the radioligand and competitor dilutions were placed on the cells, and cells were incubated in the Hypoxylab workstation for 2 h under hypoxic conditions. Cells were then removed from the Hypoxylab and were washed 3 times with ice-cold PBS, pH 7.4. Cells were solubilized with 500 μL of 0.1N NaOH/0.1% Triton X-100. Cell lysates (450 μL) were counted in a Wizard2 gamma counter (Perkin Elmer). […]
Following the procedure for the previous competitive binding assay (Example 22), the CAIX Competitive Binding Assay (pH 6.8 vs. 7.4 Buffers+Zn^2+) was carried out with the following modifications from Example 22. […] Only the homologous cold-iodine labeled CAIX ligand, EC2674, was assessed for competitive binding.

CA IX [2] = target: T1, CA IX; experiment: CAIX competitive binding assay
Method: HT29 cells were seeded into 24-well plates at 0.5×10^6 cells per well in McCoy's 5A medium containing 10% fetal bovine serum (FBS) and were allowed to attach for 48 h in an incubator with an atmosphere of 5% CO2/95% air and 37° C. The evening prior to the binding assay, cells were placed in a Hypoxylab workstation set at 10 mm Hg (1.3% O2), 5% CO2, and 37° C. (hypoxic conditions). A single concentration of ^125I-CAIX radioligand was used (2 nM). Serial dilutions of competitors (EC2674 and EC2711) were prepared in McCoy's 5A medium/10% FBS. Binding solutions (500 μL) containing the radioligand and competitor dilutions were placed on the cells, and cells were incubated in the Hypoxylab workstation for 2 h under hypoxic conditions. Cells were then removed from the Hypoxylab and were washed 3 times with ice-cold PBS, pH 7.4. Cells were solubilized with 500 μL of 0.1N NaOH/0.1% Triton X-100. Cell lysates (450 μL) were counted in a Wizard2 gamma counter (Perkin Elmer). CPM values for each competitor concentration were normalized to values for radioligand binding in the absence of competitor.

| Structure (SMILES) | IC50 (CA IX [1]; 1.3% O2, pH 6.8 buffer (20 mM BES, 140 mM NaCl, 1 mM ZnSO4)) [nM] | IC50 (CA IX [1]; 1.3% O2, pH 7.4 buffer (20 mM Tris, 140 mM NaCl, 1 mM ZnSO4)) [nM] | IC50 (CA IX [2]; HT29 cells, 2 nM 125I-EC2674, 2 hr, 37° C., 1.3% O2, McCoy's Medium+10% FBS, read-out: IC50) [nM] | IC50 (CA IX [2]) [nM] |
| --- | --- | --- | --- | --- |
| NS(=O)(=O)c1ccc(NC(=O)CN(CCN(CC(=O)Nc2ccc(S(N)(=O)=O)cc2)CC(=O)N[C@@H](CNC(=O)CCc2cc(I)c(O)c(I)c2)C(=O)O)CC(=O)O)cc1 [EC2674] | 62.5 | 66.5 | 852 | – |
| CCCC(=O)OCN(C(=O)[C@@H](NC(=O)[C@H]1CCCCN1C)C(C)CC)[C@H](C[C@@H](OC(C)=O)c1nc(C(=O)N[C@@H](Cc2ccc(O)cc2)C[C@H](C)C(=O)NNC(=O)OCCSSC[C@H](NC(=O)[C@H](CC(=O)O)NC(=O)[C@H](CC(=O)O)NC(=O)[C@H](CC(=O)O)NC(=O)CN(CCN(CC(=O)O)CC(=O)Nc2ccc(S(N)(=O)=O)cc2)CC(=O)Nc2ccc(S(N)(=O)=O)cc2)C(=O)O)cs1)C(C)C (stereo partly shown) [EC2711] | – | – | – | 9 |
